The record followed here is US7834011B2, “Heterocyclylalkyl derivatives as novel inhibitors of histone deacetylase” (Janssen Pharmaceutica N.V., priority 2006, dated 2010).

Each structure is given as a SMILES string.

Data set [1] can be described thus: Metabolic stability with rat hepatocytes cell culture C.5.b. It counts as in vitro ADME. The following applies: male, Sprague Dowley, rat hepatocyte cell cultures, read-out: in vitro half-life. The source says: Metabolism of drugs means that a lipid-soluble xenobiotic or endobiotic compound is enzymatically transformed into (a) polar, water-soluble, and excretable metabolite(s). The major organ for drug metabolism is the liver. […] However, some metabolites may have enhanced activity or toxic effects. Thus drug metabolism may include both “detoxication” and “toxication” processes. One of the major enzyme systems that determine the organism's capability of dealing with drugs and chemicals is represented by the cytochrome P450 monooxygenases, which are NADPH dependent enzymes. Metabolic stability of compounds can be determined in vitro with the use of subcellular human tissue (see example C.5.a.). Here metabolic stability of the compounds is expressed as % of drug metabolised after 15 minutes incubation of these compounds with microsomes. Quantitation of the compounds was determined by LC-MS analysis. Metabolic stability of compounds can also be determined by calculating the half live of compounds in rat hepatocyte cells (see example C.5.b.).
Rat hepatocytes were isolated from male Sprague Dowley rats. The compounds were dissolved to a 5 mM stock solution in 100% DMSO and incubated at a final concentration of 5 μM for 0, 15, 30, 60 and 120 min with rat hepatocyte cell cultures (0.5 million viable cells/0.5 ml) using 24-well plates.
Samples were prepared for LC-MS by addition of two volumes of DMSO. The samples were thoroughly shaken and subsequently centrifuged at 900 g for 10 min (room temperature). All experiments were performed in triplicate. Of the resulting supernatant 50 μl was analysed by LC-MS.
For LC-MS, elution of samples was performed on a Hypersil BDS C18 column (50×4.6 mm, 5 μm, Thermohypersil, UK). […]
Total injection volume of samples was 50 μL. […] The mass spectrometer was operated in positive ion mode in SIM adjusted to the mass of M+H with a scan width of 1 Da for quantification purposes. […] The metabolic stability of compounds in rat hepatocytes was expressed as in vitro half-lives. […]

The nature of data set [2]: Kinetic solubility in aqueous media C.3.a (nephelometer). It counts as physicochemical. The following applies: aqueous buffer, kinetic from dmso stock; phosphate citrate buffer pH 7.4, turbidity; read-out: Kinetic solubility score (C.3.a). Here is the method:
The solubility of a compound measures the ability of a compound to stay in solution. In a first method the ability of a compound to stay in aqueous solution upon dilution (see example C.3.a) is measured. DMSO-stock solutions are diluted with a single aqueous buffer solvent in 3 consecutive steps. For every dilution turbidity is measured with a nephelometer.
In the first dilution step, 10 μl of a concentrated stock-solution of the active compound, solubilized in DMSO (5 mM), was added to 100 μl phosphate citrate buffer pH 7.4 and mixed. In the second dilution step, an aliquot (20 μl) of the first dilution step was further dispensed in 100 μl phosphate citrate buffer pH 7.4 and mixed. Finally, in the third dilution step, a sample (20 μl) of the second dilution step was further diluted in 100 μl phosphate citrate buffer pH 7.4 and mixed. All dilutions were performed in 96-well plates. Immediately after the last dilution step the turbidity of the three consecutive dilution steps were measured with a nephelometer. Dilution was done in triplicate for each compound to exclude occasional errors. Based on the turbidity measurements a ranking is performed into 3 classes. Compounds with high solubility obtained a score of 3 and for this compounds the first dilution is clear. Compounds with medium solubility obtained a score of 2. […]

Data set [3] addresses histone deacetylase (HeLa nuclear extracts). The data set can be described thus: In vitro assay for inhibition of histone deacetylase with fluorescent-labelled substrate (Fluor de Lys). It counts as biochemical. An excerpt: The in vitro assay for inhibition of histone deacetylase (see example C.1) measures the inhibition of HDAC enzymatic activity obtained with the compounds of formula (I).
The HDAC Fluorescent Activity Assay/Drug Discovery Kit of Biomol (cat. No: AK-500-0001) was used. The HDAC Fluorescent Activity Assay is based on the Fluor de Lys (Fluorogenic Histone deAcetylase Lysyl) substrate and developer combination. The Fluor de Lys substrate, comprises an acetylated lysine side chain. Deacetylation of the substrate sensitizes the substrate so that, in the second step, treatment with the Fluor de Lys developer produces a fluorophore.
HeLa nuclear extracts (supplier: Biomol) were incubated at 60 μg/ml with 75 μM of substrate. The Fluor de Lys substrate was added in a buffer containing 25 mM Tris, 137 mM NaCl, 2.7 mM KCl and 1 mM MgCl2.6H2O at pH 7.4. After 30 min, 1 volume of the developer was added. The fluorophore was excited with 355 nm light and the emitted light (450 nm) was be detected on a fluorometric plate reader.
For each experiment, controls (containing HeLa nuclear extract and buffer), a blank incubation (containing buffer but no HeLa nuclear extract) and samples (containing compound dissolved in DMSO and further diluted in buffer and HeLa nuclear extract) were run in parallel. In first instance, compounds were tested at a concentration of 10^−5M. […] All sample were tested 4 times. In each test the blank value was subtracted from both the control and the sample values. The control sample represented 100% of substrate deactylation. For each sample the fluorescence was expressed as a percentage of the mean value of the controls. […] Herein the effects of test compounds are expressed as pIC50 (the negative log value of the IC50-value) (see Table F-2).

The melting point is the temperature, or range, at which the solid turns liquid. A word on the half-life: it is the time needed for the level to fall by half in the phase considered. The solubility (kinetic) is solubility judged after dilution from a stock solution rather than from solid.

In turn, `Cn1c(CNCC2CCN(c3ncc(C(=O)NO)cn3)CC2)nc2ccccc21` [Compound 3] registered a melting point of 209 °C. Further, in data set [1], the half-life at 5 μM was 30 to 55 min. Also, the solubility (kinetic) in data set [2] was > 455 µM. Besides, the “Enzymatic activity pIC50 C.1” value in data set [3] is 8.1.
